In patent US12036224B2, “Formulations, methods, kits, and dosage forms for treating atopic dermatitis and for improved stability of an active pharmaceutical ingredient” (Libertas Bio, Inc., priority 2017, dated 2024):
Values after ≈ are worked out from the molar mass of the structure shown. “Also recorded” adds a separate entry of the source.

Columns and labels:
[1] = HCl pH dependent solubility profile study; assay type: physicochemical; details: thermodynamic from solid
Source text: Analytical studies for 2-(1-(4-((4-(4-hydroxypiperidin-1-yl)phenyl)amino)-5-oxo-5,6-dihydropyrimido[4,5-d]pyridazin-2-yl)piperidin-4-yl)acetonitrile are provided below in Tables 1-3: Table 1 provides the results of an HCl pH dependent solubility profile study, Table 2 provides the results of an HCl solubility profile in organic solvents, and Table 3 provides the results of an HCl stress study.

[2] = tested on: subjects with moderate-to severe atopic dermatitis; experiment: Phase 1b study in atopic dermatitis: safety and tolerability; assay type: in vivo, human
Description: The study conducted was a randomized, double-blind, placebo-controlled, multicenter, sequential dose escalation study in subjects with moderate-to severe atopic dermatitis. The study included a screening period (up to 30 days) and a treatment period for 4 weeks with a 14 day follow up period that concluded with an end-of-study visit. Three sequential cohorts of 20, 40 and 80 mg QD were evaluated. At each dose level a total of 12 subjects were enrolled with 9 subjects receiving Compound 1, and 3 subjects receiving matching placebos.
Assessment of safety: Safety was assessed by AEs, vital signs, 12-lead ECG, physical examination, and laboratory safety assessments.

[3] = tested on: lesional skin of subjects with atopic dermatitis; experiment: Phase 1b study in atopic dermatitis: skin biopsy biomarkers; assay type: in vivo, human
Source text: Assessment of Pharmacodynamics/Biomarker Parameters: • 1. Change from baseline in inflammatory markers in serum (including immune markers and CRP) • 2. Change from baseline in molecular skin biomarkers (inflammatory and barrier) • 3. Change from baseline in cellular markers (including reduction in inflammatory cells) • 4. Change from baseline in epidermal thickness and barrier markers in skin biopsies. Assessments of Efficacy Investigator's Global Assessment
For each subject, a maximum of four skin biopsies were collected during this study. Two punch biopsy samples (one from lesional skin and one from non-lesional skin) were collected at Day 1 and one punch biopsy was collected from the same lesional skin (outside the scar of the previous biopsies) at Day 15 (optional for subjects) and Day 29.
A panel of biological markers were assessed to determine the effect of Compound 1 on the disease process. These may include, but are not limited to: • Serum cytokines and inflammatory markers • Molecular skin biomarkers (inflammatory and barrier) • Circulating and tissue resident cellular phenotyping • Epidermal thickness and barrier markers from skin biopsies • Other biomarkers related autoimmune or inflammatory diseases Results: […]

[4] = tested on: JAK/STAT pathway in T cells (primary); experiment: Inhibition of JAK/STAT pathway in T cells stimulated with various cytokines; assay type: cell-based; details: T cells (primary) stimulated by various cytokines
Description: FIG. 7A is a graph of the % of subjects to achieve EASI50 over time (Day 1 to Day 29) for a placebo and Compound 1 in the doses of 20 mg, 40 mg and 80 mg. FIG. 7B is a graph of the % of subjects to achieve EASI75 over time (Day 1 to Day 29) for a placebo and Compound 1 in the doses of 20 mg, 40 mg and 80 mg. […] FIG. 8A is a graph of the % CFB (percentage change from baseline) for EASI (decrease) for the placebo and Compound 1 in the doses of 20 mg, 40 mg and 80 mg. FIG. 8B is a graph of the % CFB for BSA (body surface area) (decrease) for the placebo and Compound 1 in the doses of 20 mg, 40 mg and 80 mg. FIG. 8C is a graph of the % CFB for IGA 0-1 (Investigator's Global Assessment) for the placebo and Compound 1 in the doses of 20 mg, 40 mg and 80 mg. FIG. 9 is a graph of day 15 plasma concentration for Compound 1 in the doses of 20 mg, 40 mg and 80 mg. […] In FIG. 10, the IC50 values were determined in biochemical kinase assays using purified partial or full length enzymes. FIG. 11 is a chart showing inhibition of Compound 1 in JAK/STAT pathway in T cells stimulated with various cytokines.

[5] = tested on: IL-17-SYK mediated CCL20 release, human keratinocytes; experiment: Inhibition of IL17 mediated CCL20 release in keratinocytes; assay type: cell-based; details: single donor, n=3
Description: In FIG. 12, each bar represents mean and SEM for 3 replicates (n=3) of a single donor. FIG. 13 is a graph showing average weekly change in pruritus (NRS) for a placebo, and Compound 1 in the doses of 20 mg, 40 mg and 80 mg.

SYK = SYK (Homo sapiens, UniProt P43405); experiment: Pre-clinical kinase inhibition, SYK; assay type: biochemical; details: pre-clinical studies
Source text: (§1) A formulation of the disclosure comprising 2-(1-(4-((4-(4-hydroxypiperidin-1-yl)phenyl)amino)-5-oxo-5,6-dihydropyrimido[4,5-d]pyridazin-2-yl)piperidin-4-yl)acetonitrile comprises a potent inhibitor of Spleen Tyrosine Kinase (SYK) and Janus Kinases (JAK).

JAK = experiment: Pre-clinical kinase inhibition, JAK; assay type: biochemical; details: pre-clinical studies
Source text: as §1

[6] = tested on: ibrutinib-resistant cell lines; experiment: Pre-clinical proliferation in ibrutinib-resistant cell lines; assay type: cell-based
Source text: as §1

[7] = tested on: rodent xenograft models of NHL and other hematologic malignancies; experiment: Rodent xenograft models of NHL and other hematologic malignancies; assay type: in vivo
Source text: as §1

[8] = tested on: patients with solid tumors and hematologic malignancies; experiment: Phase 1/2 trial in solid tumors and hematologic malignancies: safety and tolerability; assay type: in vivo, human
Description: Methods: Phase 1/2 clinical trial in patients with solid tumors and hematologic malignancies evaluates escalating oral doses of the formulation disclosed herein at 10, 20, 30, 40, 50, 75 and 100 mg BID and 80 and 120 mg QD mg (NCT02440685). Phase 1 allows patients with solid tumors or hematologic malignancies; Phase 2 allows only patients with diffuse large B-Cell lymphoma (DLBCL), follicular lymphoma (FL) or mantle cell lymphoma (MCL). Endpoints include safety, tolerability, pharmacokinetics, serum markers of inflammation, and response using RECIST or Lugano Classification System, […]

[9] = 10 mg-100 mg BID and 80-120 mg QD

For `N#CCC1CCN(c2nc(Nc3ccc(N4CCC(O)CC4)cc3)c3c(=O)[nH]ncc3n2)CC1` [Compound 1, 2-(1-(4-((4-(4-hydroxypiperidin-1-yl)phenyl)amino)-5-oxo-5,6-dihydropyrimido[4,5-d]pyridazin-2-yl)piperidin-4-yl)acetonitrile], the solubility ([1]; aqueous buffer, pH 4.5 Acetate Buffer, initial pH 4.50, end pH 4.56) was 2.9 µg/mL (≈ 6.3 µM), the solubility ([1]; aqueous buffer, pH 5.5 Acetate Buffer, initial pH 5.52, end pH 5.12) was 1 µg/mL (≈ 2.17 µM) and the solubility ([1]; aqueous buffer, pH 6.8 Phosphate Buffer, initial pH 6.80, end pH 6.86) was 2.7 µg/mL (≈ 5.86 µM). It also gave a solubility ([1]; aqueous buffer, pH 7.5 Phosphate Buffer, initial pH 7.55, end pH 6.96) of 0.7 µg/mL (≈ 1.52 µM), a solubility ([1]; simulated gastric fluid, 0.1N HCl, end pH 1.23) of 10800 µg/mL (≈ 23500 µM) and a solubility ([1]; Water, end pH 2.62) of 941 µg/mL (≈ 2040 µM). For the same compound, the “changes in chemistry lab parameters” value ([2]; in vivo) was “No clinically significant changes in chemistry lab parameters except asymptomatic, mild-to-moderate transient elevations of CPK”, the “changes in hematologic lab parameters including platelets, neutrophils and lymphocytes” value ([2]; in vivo) was “No clinically significant changes” and the “changes in lipid profile” value ([2]; in vivo) was “No changes in lipid profile”. The “serious infections or thromboembolic events” value ([2]; in vivo) was “No serious infections or thromboembolic events occurred”, the tolerability ([2]; patients with moderate to severe atopic dermatitis, 20, 40, 80 mg once daily) was “well tolerated; also recorded: very well tolerated at all dose levels” and the “most common adverse events” value ([2]; predominantly Day 1) was “transient, mild headache and nausea”. For the same compound, the “T cell (CD3+) infiltration into all layers of the skin” value ([3]; 40 and 80 mg, Day 29) was “reduced”, the “Myeloid DC (CD11c+) infiltration into all layers of the skin” value ([3]; 40 and 80 mg, as early as Day 15) was “reduced” and the “cutaneous biomarkers (cellular infiltrates, immune and hyperplasia markers)” value ([3]; particularly in the mid and high dose) was “improvements in epidermal hyperplasia and cellular infiltrates observed as early as Day 15; also recorded: down regulates inflammatory pathways; also recorded: reversal of cutaneous biomarkers of inflammation”. For the same compound, the total skin thickness ([3]; skin biopsies, 20, 40 and 80 mg) was “Reductions in total skin thickness can be observed as early as Day 15”, the “inhibition of JAK/STAT pathway” value [4] was “strong inhibition” and the “inhibition of IL-17-SYK mediated CCL20 release” value [5] was “inhibits IL-17-SYK mediated CCL20 release, from human keratinocytes, at levels similar to IL17 neutralizing antibodies”. For the same compound, the “IC50 against SYK” value (SYK) was “low nM”, the “IC50 against JAK” value (JAK) was “low nM” and the proliferation [6] was “decreases proliferation”. For the same compound, the tumor growth [7] was “suppresses tumor growth”, the “dose limiting adverse events” value [8, 9] was “No dose limiting adverse events” and the tolerability [8, 9] was “safe and well tolerated”. For the same compound, the MTD ([8]; dose escalation continues) was “has not been reached” and the “grade of most drug-related adverse events” value ([8]; e.g. headache, fatigue) was “Gr 1/2”.
